Laboratory results as given in patent publication US20090220562A1, “Osteogenic and anti-adipogenic oxysterols” (priority 2005, published 2009).

What was measured:
Assay type in all cases: cell-based, mouse
[1] = test system: M2-10B4 marrow stromal cells; experiment: Alkaline phosphatase (ALP) activity assay on whole cell extracts of M2-10B4 marrow stromal cells; details: for induction of alkaline phosphatase activity: 10 μM oxysterol, 3 days, osteogenic medium
Protocol: (§1) Cells: M2-10B4 mouse marrow stromal cell line obtained from American Type Culture Collection (ATCC, Rockville, Md., U.S.A.) was derived from bone marrow stromal cells of a (C57BL/6J x C3H/HeJ) Fl mouse, and support human and murine myelopoiesis in long-term cultures (as per ATCC) and have the ability to differentiate into osteoblastic and adipocytic cells. Unless specified, these cells were cultured in RPMI 1640 containing 10% heat-inactivated FBS, and supplemented with 1 mM sodium pyruvate, 100 U/ml penicillin, and 100 U/ml streptomycin (all from Irvine Scientific).
Cells were always treated at 90% confluence. […]
Next, a combination of 22R and 20S oxysterols (RS, 2.5 μM each) were added in the presence or absence of SC as indicated. After 3 days, ALP activity was measured as described earlier. […] (B) M2 cells were treated as described in (A) and after 10 days matrix mineralization in cultures was quantified by a ^45Ca incorporation assay as described earlier. […] (C) M2 cells were pretreated with 20 μM SC for 4 hours, followed by the addition of RS in the presence or absence of SC as described above. After 8 days, total RNA was isolated and analyzed for osteocalcin (Osc) and […] expression by Northern blotting as previously described. Data from densitometric analysis of the Northern blot is shown in (D) as the average of duplicate samples, normalized to 18S rRNA. (E) M2 cells at confluence were pretreated for 2 hours with control vehicle (C), or PLA2 inhibitors ACA (25 μM) and AACOCF3 (AAC, 20 μM), in osteogenic medium. Next, a combination of 22R and 20S oxysterols (RS, 2.5 μM) was added in the presence or absence of the inhibitors as indicated. After 3 days, ALP activity was measured as previously described. […] (F) M2 cells were treated as described in (E). After 10 days, matrix mineralization in cultures was quantified using a ^45Ca incorporation assay as previously described. […]

[2] = test system: M2-10B4 marrow stromal cells; experiment: Matrix mineralization (45Ca incorporation assay, von Kossa staining) in M2-10B4 marrow stromal cells; details: for induction of mineralization by individual oxysterols: 0.5 to less than 10 μM, as many as 14 days (data not shown)
Protocol: as §1
(§2) Von Kossa and oil red O staining—Matrix mineralization in cell monolayers was detected by silver nitrate staining as previously described. Oil red O staining for detection of adipocytes was performed as previously described.
^45Ca incorporation assay—Matrix mineralization in cell monolayers was quantified using the ^45Ca incorporation assay as previously described.
After 14 days, mineralization was identified by a von Kossa staining, which appears black. FIG. 3C is a depiction of von Kossa staining of M2 cells exposed to various conditions.
After 14 days, matrix mineralization in cultures was quantified using a ^45Ca incorporation assay.
Next, a combination of 22R and 20S oxysterols (RS, 2.5 μM each) were added in the presence or absence of SC as indicated. After 3 days, ALP activity was measured as described earlier. […] (B) M2 cells were treated as described in (A) and after 10 days matrix mineralization in cultures was quantified by a ^45Ca incorporation assay as described earlier. […] (C) M2 cells were pretreated with 20 μM SC for 4 hours, followed by the addition of RS in the presence or absence of SC as described above. After 8 days, total RNA was isolated and analyzed for osteocalcin (Osc) and […] expression by Northern blotting as previously described. Data from densitometric analysis of the Northern blot is shown in (D) as the average of duplicate samples, normalized to 18S rRNA. (E) M2 cells at confluence were pretreated for 2 hours with control vehicle (C), or PLA2 inhibitors ACA (25 μM) and AACOCF3 (AAC, 20 μM), in osteogenic medium. Next, a combination of 22R and 20S oxysterols (RS, 2.5 μM) was added in the presence or absence of the inhibitors as indicated. After 3 days, ALP activity was measured as previously described. […] (F) M2 cells were treated as described in (E). After 10 days, matrix mineralization in cultures was quantified using a ^45Ca incorporation assay as previously described. Results from a representative of three experiments are shown, reported as the mean of quadruplicate determinations ±SD, normalized to protein concentration (p<0.01 for RS vs. RS+ACA and RS+AAC).
(A) M2 cells at confluence were pretreated for four hours with RPMI containing 1% FBS, followed by treatment with control vehicle or 5 μM 20S oxysterol for 1, 4, or 8 hours. Next total cell extracts were prepared and analyzed for levels of native or phosphorylated ERK (pERK) using specific antibodies as previously described. Data from a representative of four experiments are shown, each treatment shown in duplicate samples. (B) M2 cells at confluence were pretreated for 2 hours with control vehicle (C) or 20 μM PD98059 (PD) in osteogenic medium as previously described. Next, a combination of 22R and 20S oxysterols (RS, 5 μM each) were added to appropriate wells as indicated. After 10 days of incubation, matrix mineralization was quantified by the ^45Ca incorporation assay as previously described. […] (C) M2 cells at confluence were pretreated for 2 hours with 20 µM PD98059 (PD) in RPMI containing 5% FBS. Next, the cells were treated with control vehicle (C), 10 μM troglitazone (Tro), or 10 μM of 20S or 22S oxysterols, alone or in combination as indicated. After 10 days, adipocytes were visualized by oil Red O staining and quantified by light microscopy as previously described. […]

M2 cells = experiment: Troglitazone-induced adipogenesis in M2 cells (oil Red O staining, adipocyte count); details: Tro 10 μM, oxysterol 10 μM, 10 days, alone or in combination
Protocol: as §2
Test 1: M2 cells at 90% confluence were treated with vehicle (C), PPAR-γ activator, troglitazone 10 μM (Tro), alone or in combination with 10 μM oxysterols 20S-, 22R-, or 25S-hydroxycholesterol. After 8 days, adipocytes were identified by oil Red 0 staining and quantified by counting under a phase contrast microscope. FIG. 6A is a bar graph depicting the effect of oxysterols on reducing adipogenesis of MSC.
Test 2: (A) M2 cells at confluence were treated in RPMI containing 10% FBS with control vehicle or 10 μM troglitazone (Tro) in the absence or presence of 10 μM 20S or 22S-hydroxycholesterol. After 10 days, adipocytes were visualized by oil Red O staining and quantified by light microscopy, shown in (B). […] (C) M2 cells were treated at confluence with 10 μM Tro, alone or in combination with 10 μM 20S oxysterol. After 10 days, total RNA was isolated and analyzed for lipoprotein lipase (LPL), adipocyte P2 gene (aP2) or 18S rRNA expression by Northern blotting as described (Ref). Data from densitometric analysis of the Northern blot is shown in (D) as the average of duplicate samples, normalized to 18S rRNA.

Row | SMILES | induction of alkaline phosphatase activity [1] | induction of mineralization by individual oxysterols [2] | effect on troglitazone-induced adipogenesis (M2 cells) | alkaline phosphatase (ALP) activity ([1]; doses of 5-15 μM) | mineralization ([2]; doses of 5-15 μM)
1 | CC(C)CC[C@H](O)[C@@H](C)[C@H]1CC[C@H]2[C@@H]3CC=C4C[C@@H](O)CC[C@]4(C)[C@H]3CC[C@]12C [22S-hydroxycholesterol] | induced | unable to induce | inhibited adipogenesis |  | 
2 | CC(C)CC[C@@H](O)[C@@H](C)[C@H]1CC[C@H]2[C@@H]3CC=C4C[C@@H](O)CC[C@]4(C)[C@H]3CC[C@]12C [22R-hydroxycholesterol] | induced | unable to induce | inhibited adipogenesis |  | 
3 | CC(C)CCC[C@](C)(O)[C@H]1CC[C@H]2[C@@H]3CC=C4C[C@@H](O)CC[C@]4(C)[C@H]3CC[C@@]21C [20S-hydroxycholesterol] | induced | unable to induce | inhibited adipogenesis | induction | induction
